Ki data for 13 molecules are collected here from patent EP1100483B1, “GLUCOCORTICOID-SELECTIVE ANTI-INFLAMMATORY AGENTS” (Abbott Laboratories, priority 1998, dated 2000).

For the experiment, the target named is T1, human progesterone receptor-A [PRA] isoform (Homo sapiens, UniProt P06401).
T1 construct: purchased Ligand Pharmaceuticals (San Diego, CA); host or cells: insect SF21 cells (baculovirus)
T1 sequence (P06401 1-769 isoform P06401-2): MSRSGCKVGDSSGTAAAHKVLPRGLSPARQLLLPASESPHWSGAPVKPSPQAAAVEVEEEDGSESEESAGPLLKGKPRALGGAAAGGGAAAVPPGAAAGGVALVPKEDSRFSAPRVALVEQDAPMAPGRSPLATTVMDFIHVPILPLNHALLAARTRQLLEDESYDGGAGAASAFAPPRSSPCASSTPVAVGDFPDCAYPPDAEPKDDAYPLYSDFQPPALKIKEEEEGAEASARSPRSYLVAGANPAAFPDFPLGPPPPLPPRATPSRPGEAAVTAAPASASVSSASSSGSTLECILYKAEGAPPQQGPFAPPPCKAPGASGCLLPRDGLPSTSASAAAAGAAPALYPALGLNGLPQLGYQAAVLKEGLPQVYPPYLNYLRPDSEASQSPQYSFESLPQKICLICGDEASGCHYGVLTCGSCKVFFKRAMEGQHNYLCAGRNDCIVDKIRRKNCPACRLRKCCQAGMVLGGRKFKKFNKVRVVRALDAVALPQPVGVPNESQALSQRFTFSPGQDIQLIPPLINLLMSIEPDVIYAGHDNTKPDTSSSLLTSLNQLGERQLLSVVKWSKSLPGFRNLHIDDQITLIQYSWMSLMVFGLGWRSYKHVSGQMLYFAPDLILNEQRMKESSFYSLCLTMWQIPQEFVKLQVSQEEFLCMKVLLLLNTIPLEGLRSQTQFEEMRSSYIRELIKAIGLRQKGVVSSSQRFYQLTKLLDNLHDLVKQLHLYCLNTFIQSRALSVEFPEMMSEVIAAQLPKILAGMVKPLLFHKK
Kind of experiment: progesterone receptor cytosol (PR) binding assay, [3H]-progesterone competition. As to conditions: [3H]Prog ~0.8 nM, 4 °C overnight, Cheng-Prusoff. From the text:
For glucocorticoid receptor (OR) cytosol binding assays, the procedure described in Anal. Biochem. 1970, 37, 244-252, hereby incorporated by reference, was used. Briefly, cytosol preparations of human glucocorticoid receptor-α [GRX] isoform and human progesterone receptor-A [PRA] isoform were obtained from Ligand Pharmaceuticals (San Diego, CA). Both receptor cDNAs were cloned into baculovirus expression vectors and expressed in insect SF21 cells. [^3H]-dexamethasone (Dex, specific activity 82-86 Ci/mmole) and [^3H]-progesterone (Prog, specific activity 97-102 Ci/mmol) were purchased from Amersham Life Sciences (Arlington Heights, IL). Glass fiber type C multiscreen MAFC NOB plates were from Millipore ( Burlington, MA). Hydroxyapatide Bio-Gel HTP gel was obtained from Bio-Rad Laboratories (Hercules. CA). Tris(hydroxymethyl)aminomethane (Tris), ethylenediaminetetraacetic acid (EDTA), glycerol, dithiothreitol (DTT) and sodium moylybdate were obtained from Sigma Chemicals (St. Louis, MO). Microscint-20 scintillation fluid was obtained from Packard Instrument (Meriden, CT).
Stock solutions (32 mM) of compounds were prepared in dimethylsulfoxide (DMSO), and 50X solutions of test compounds were prepared from the 32 mM solution with a 50:50 mixture of DMSO/ethanol. The 50X solution was then diluted with binding buffer that contained 10 mM Tri-HCl, 1.5 mM EDTA, 10% glycerol, 1 mM DTT, 20 mM sodium molybdate. pH 7.5 at 4 °C. 1% DMSO/ethanol was also present in the binding assay.
For progesterone receptor cytosol (PR) binding assays, [^3H]Prog (~36,000 dpm (∼0.8 nM)), PRA cytosol (~40 µg protein), test compounds and binding buffer were mixed in a total volume of 200 µL and incubated at 4 °C overnight in a plate shaker. Specific binding was defined as the difference between binding of [^3H]Prog in the absence and in the presence of 3 µM unlabeled Prog.
After an overnight incubation, 50 µL of hydroxyapatite (25 % weight/volume) slurry were added to each well and plates were incubated for 10 min at 4 °C in a plate shaker. Plates were suctioned with a Millipore vacuum manifold and each well was rinsed with 300 µL of ice-cold binding buffer. A 250 µL aliquot of Packard Microscint-20 was added to each well and the wells were shaken at room temperature for 20 minutes. The amount of radioactivity was determined with a Packard TopCount plate reader.
The Ki of test compounds was determined using the Cheng-Prusoff equation Ki =IC50/(1+[L*]/[KL]) where L* is the concentration of radioligand and KL is the dissociation constant of the radioligand determined from saturation analysis. For GRX, KL was ∼1.5 nM, and for PRA, KL was ~4.5 nM.

The Ki is a dissociation constant, usually derived from enzyme kinetics or from competition with a known ligand. Lower therefore signals a stronger hold on the target.

Turning to `CN(C)c1ccc(C(c2ccc(N(C)C)cc2)c2cc([N+](=O)[O-])ccc2Cl)cc1` [Example 1, 4',4" bis(dimethylamino)-2-chloro-5-nitrotriphenylmethane], the Ki was above 10000 nM.

For the molecule `CNc1ccc(C(c2ccc(NC)cc2)c2cc([N+](=O)[O-])ccc2Cl)cc1` [Example 23, 4',4" bis(methylamino)-2-chloro-5-nitrotriphenylmethane], the Ki is 624 nM.

Molecule `CN(C)c1ccc(C(c2ccc(N(C)C)cc2)c2cc(Cl)ccc2Cl)cc1` [Example 24, 4',4" bis(dimethylamino)-2,5-dichlorotriphenylmethane] displayed a Ki of 2590 nM.

Regarding `CNc1ccc(C(c2ccc(NC)cc2)c2cc(Cl)ccc2Cl)cc1` [Example 27, 4',4" bis(methylamino)-2,5-dichlorotriphenylmethane], the Ki is 318 nM.

Molecule `CC(=O)OCCN(C)c1ccc(C(c2ccc(N(C)CCOC(C)=O)cc2)c2cc([N+](=O)[O-])ccc2Cl)cc1` [Example 31, 4',4" bis(N-(2-acetoxyethyl) N-methylamino)-2-chloro-5-nitrotriphenylmethane] returned a Ki of 2680 nM.

As for `CN(CCO)c1ccc(C(c2ccc(N(C)CCO)cc2)c2cc([N+](=O)[O-])ccc2Cl)cc1` [Example 32, 4',4" bis(N-(2-hydroxyethyl) N-methylamino)-2-chloro-5-nitrotriphenylmethane], the Ki amounted to 536 nM.

The molecule `O=[N+]([O-])c1ccc(Cl)c(C(c2ccc(NCc3ccccc3)cc2)c2ccc(NCc3ccccc3)cc2)c1` [Example 36, 4',4" bis(N-benzylamino)-2-chloro-5-nitrotriphenylmethane] yielded a Ki of 2590 nM.

In turn, `CNc1ccc(C(c2ccc(N(C)C)cc2)c2cc([N+](=O)[O-])ccc2Cl)cc1` (stereo not shown) [Example 39, 4'-dimethylamino-4"-methylamino-2-chloro-5-nitrotriphenylmethane] gave an inhibition constant (Ki) of 510 nM.

Consider `CN(C)c1ccc(C(c2ccc(N(C)CCO)cc2)c2cc([N+](=O)[O-])ccc2Cl)cc1` (stereo not shown) [Example 42, 4'-dimethylamino-4"-(N-methyl-N-(2-hydroxyethyl)amino)-2-chloro-5-nitrotriphenylmethane], for which the Ki was 187 nM.

As to `CNc1ccc(C(c2ccc(N(C)CCOC(C)=O)cc2)c2cc([N+](=O)[O-])ccc2Cl)cc1` (stereo not shown) [Example 49, 4'-methylamino-4"-(N-(2-acetoxyethyl)-N-methylamino)-2-chloro-5-nitrotriphenylmethane], the Ki was 241 nM.

`CC(=O)OCCN(C)c1ccc(C(c2ccc(N(C)C)cc2)c2cc([N+](=O)[O-])ccc2Cl)cc1` (stereo not shown) [Example 51, 4'-dimethylamino-4"-(N-methyl-N-(2-acetoxyethyl)amino)-2-chloro-5-nitrotriphenylmethane]: the affinity corresponds to a Ki of 1080 nM.

In turn, `CN(C)c1ccc(C(Oc2ccccc2)c2cc([N+](=O)[O-])ccc2Cl)cc1` (stereo not shown) [Example 52, phenyl-[(4'-dimethylaminophenyl)-(2-chloro-5-nitrophenyl)methyl] ether] had a Ki of 698 nM.

Consider `CN(C)c1ccc(C(Sc2ccccc2)c2cc([N+](=O)[O-])ccc2Cl)cc1` (stereo not shown) [Example 54, phenyl-[(4'-dimethylaminophenyl)-(2-chloro-5-nitrophenyl)methyl]thioether], for which the Ki came to 2590 nM.
